Source: US12012406B1, “Pyrido[4,3-e]pyrrolo[1,2-a]pyrimidine as CK2 inhibitors” (KING FAISAL UNIVERSITY, priority 2024, dated 2024)

How the values were obtained:
HL60 (leukemia) = assay: In vitro cytotoxic activity MTT assay, HL60; format: cell-based; conditions: Homo sapiens, HL-60, cells exposed for 96 hours, read-out: Cytotoxicity activity IC50 (50% inhibition of cell proliferation)
Protocol: (§1) Compounds 1-16 were screened for their in vitro cytotoxic activity utilizing a 3-(4,5-dimethyl-thiazol-2-yl)-2,5-diphenyltetrazolium bromide (MTT) assay against selected cancer human cell lines consisting of PC3 (prostate), HCT116 (colon), A375 (melanoma), H1299 (lung), MIAPaCa-2 (pancreas), HL60 (leukemia), MCF7 (breast), MDA-MB-231 (breast) (T. Mosmann, J. Immunol. Meth., 1983, 65, 55-63). The cells were cultured at 37° C. in RMPI1640 medium supplemented with 10% fetal bovine serum, 50 IU/mL penicillin, and 50 μg/mL streptomycin in a 5% CO2 incubator. All cells were sub-cultured 3 times/week by trypsinisation. Viable cells were seeded and allowed to adhere for 12 hours before a test drug was added in 96-well plates at an initial density of 1.0×10^5 cells/mL. Tumor cell lines were separately exposed to various concentrations of the tested compounds followed by incubation at a temperature of 37° C. during 96 hours inside a medium of fresh RMPI 1640. Cells were subsequently incubated at 37° C. using MTT at 0.5 mg/mL during 4 hours. After removal of supernatant, formazan crystals were dissolved in isopropanol and the optical density was measured at 570 nm. CX-4945 was used as a positive control.

MIAPaCa-2 (pancreas) = assay: In vitro cytotoxic activity MTT assay, MIAPaCa-2; format: cell-based; conditions: Homo sapiens, MIA PaCa-2, cells exposed for 96 hours, read-out: Cytotoxicity activity IC50 (50% inhibition of cell proliferation)
Protocol: as §1

PC3 (prostate) = assay: In vitro cytotoxic activity MTT assay, PC3; format: cell-based; conditions: Homo sapiens, Prostate cell, cells exposed for 96 hours, read-out: Cytotoxicity activity IC50 (50% inhibition of cell proliferation)
Protocol: as §1

[1] = molecular target: T1, recombinant human CK2 (RRBB-holoenzyme) (Homo sapiens, UniProt P68400); assay: CK2 Kinase Assay (33P-ATP, filter plate); format: biochemical; conditions: recombinant human CK2, final ATP concentration 15 μM, 10 min at 30° C.; read-out: protein kinase CK2 inhibition IC50
T1 construct: purchased Millipore
Protocol: CK2 Kinase Assay was conducted using the protocol as described in Pierre F. et al; J. Med. Chem. 2011, 54, 635-654. The tested compounds in aqueous solution were added at a volume of 10 μL to a reaction mixture comprising 10 μL of assay dilution buffer (ADB; 20 mM MOPS, pH 7.2, 25 mM B-glycerol phosphate, 5 mM EGTA, 1 mM sodium orthovanadate, and 1 mM dithiothreitol), 10 μL of substrate peptide (RRRDDDSDDD, dissolved in ADB at a concentration of 1 mM), 10 μL of recombinant human CK2 (RRBB-holoenzyme, 25 ng dissolved in ADB; Millipore). Reactions were initiated by the addition of 10 μL of ATP solution (90% 75 mMMgCl2, 75 μM ATP (final ATP concentration: 15 μM) dissolved in ADB; 10% [γ-33P] ATP (stock 1mCi/100 μL; 3000 Ci/mmol (Perkin-Elmer) and maintained for 10 min at 30° C. The reactions were quenched with 100 μL of 0.75% phosphoric acid and then transferred to and filtered through a phosphor cellulose filter plate (Millipore). After washing each well five times with 0.75% phosphoric acid, the plate was dried under vacuum for 5 min and, following the addition of 15 μL of scintillation fluid to each well, the residual radioactivity was measured using a Wallac luminescence counter. The IC50 values were derived from eight concentrations of test inhibitors.

MCF7 (breast) = assay: In vitro cytotoxic activity MTT assay, MCF7; format: cell-based; conditions: Homo sapiens, cells exposed for 96 hours, read-out: Cytotoxicity activity IC50 (50% inhibition of cell proliferation)
Protocol: as §1

HCT116 (colon) = assay: In vitro cytotoxic activity MTT assay, HCT116; format: cell-based; conditions: Homo sapiens, HCT-116, cells exposed for 96 hours, read-out: Cytotoxicity activity IC50 (50% inhibition of cell proliferation)
Protocol: as §1

MDA-MB-231 (breast) = assay: In vitro cytotoxic activity MTT assay, MDA-MB-231; format: cell-based; conditions: Homo sapiens, cells exposed for 96 hours, read-out: Cytotoxicity activity IC50 (50% inhibition of cell proliferation)
Protocol: as §1

A375 (melanoma) = assay: In vitro cytotoxic activity MTT assay, A375; format: cell-based; conditions: Homo sapiens, A-375, cells exposed for 96 hours, read-out: Cytotoxicity activity IC50 (50% inhibition of cell proliferation)
Protocol: as §1

H1299 (lung) = assay: In vitro cytotoxic activity MTT assay, H1299; format: cell-based; conditions: Homo sapiens, NCI-H1299, cells exposed for 96 hours, read-out: Cytotoxicity activity IC50 (50% inhibition of cell proliferation)
Protocol: as §1

T1 sequence (P68400 whole entry): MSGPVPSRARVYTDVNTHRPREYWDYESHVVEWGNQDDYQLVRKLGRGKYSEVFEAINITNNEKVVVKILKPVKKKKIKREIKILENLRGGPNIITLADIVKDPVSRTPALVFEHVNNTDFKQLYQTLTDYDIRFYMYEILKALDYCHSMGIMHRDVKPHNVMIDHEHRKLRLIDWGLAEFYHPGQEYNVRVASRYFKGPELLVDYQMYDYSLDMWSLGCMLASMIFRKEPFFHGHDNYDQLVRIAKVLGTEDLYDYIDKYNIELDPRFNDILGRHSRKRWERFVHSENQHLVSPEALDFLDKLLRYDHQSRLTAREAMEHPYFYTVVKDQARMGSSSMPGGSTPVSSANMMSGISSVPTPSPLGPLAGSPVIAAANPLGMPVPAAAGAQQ
T1 sequence (P67870 whole entry partner): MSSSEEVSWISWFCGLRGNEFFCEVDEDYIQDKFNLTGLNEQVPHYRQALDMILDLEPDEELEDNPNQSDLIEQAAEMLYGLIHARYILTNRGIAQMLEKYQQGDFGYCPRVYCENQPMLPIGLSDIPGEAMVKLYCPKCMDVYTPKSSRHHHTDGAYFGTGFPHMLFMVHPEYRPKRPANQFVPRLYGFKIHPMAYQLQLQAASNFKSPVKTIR

O=C(O)c1ccn2c1nc(Nc1cccc(Cl)c1)c1ccncc12 [Compound 1, 5-((3-chlorophenyl)amino)pyrido[4,3-e]pyrrolo[1,2-a]pyrimidine-7-carboxylic acid]
IC50 (HL60 (leukemia)): 3500 nM
IC50 (MIAPaCa-2 (pancreas)): 1300 nM
IC50 (PC3 (prostate)): 2400 nM
IC50 [1]: 89 nM
IC50 (MCF7 (breast)): 5600 nM
IC50 (HCT116 (colon)): 2100 nM
IC50 (MDA-MB-231 (breast)): 4200 nM
IC50 (A375 (melanoma)): 4600 nM
IC50 (H1299 (lung)): 1900 nM
